The source made the active and inactive calls. No cut-off for these calls is given here. Square brackets hold non-standard residues; d marks the D form. Peptide text beside a SMILES is read from it. * marks the point of attachment. Hyp = O=C(O)[C@@H]1C[C@@H](O)CN1; ONp = O=[N+]([O-])c1ccc(O*)cc1; Cbz = O=C(OCc1ccccc1)*; Boc = CC(C)(C)OC(=O)*; OBn = c1ccc(CO*)cc1

What is called IC50 is the midpoint of a concentration-inhibition curve.

The target in test [1] is Protease (Human immunodeficiency virus 1) (UniProt Q9YQ12). Kind of test: Inhibition of recombinant HIV1 protease at 1 mM using FRET substrate peptide by FRET assay.
Test [2] shares this target. The test can be described thus: Inhibition of recombinant HIV1 protease at 2 uM using FRET substrate peptide by FRET assay.
The target of test [3] is Protease (Human immunodeficiency virus 1, UniProt Q9YQ12). The test can be described thus: Inhibition of recombinant HIV1 protease using FRET substrate peptide by FRET assay.
Protease, sequence (Q9YQ12 whole entry): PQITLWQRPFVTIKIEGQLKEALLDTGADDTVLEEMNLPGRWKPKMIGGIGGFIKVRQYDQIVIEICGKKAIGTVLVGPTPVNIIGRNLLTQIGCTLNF

Protease (Human immunodeficiency virus 1), sequence (Q9YQ12 as listed by the source): as the sequence (Q9YQ12 whole entry) above

Regarding `CC(C)[C@H](NC(=O)[C@H](Cc1ccccc1)NC(=O)OC(C)(C)C)C(=O)NCC(=O)OCc1ccccc1` (Boc-Phe-Val-Gly-OBn), in test [1], the inhibition result is “inactive”.
As to `CC(C)C[C@@H](NC(=O)[C@H](CSCc1ccccc1)NC(=O)OCc1ccccc1)C(=O)OCc1ccccc1`, in test [1], the inhibition entry is “inactive”.
Turning to `CC(C)CC(=O)N[C@H](C(=O)N[C@H](C(=O)N[C@@H](CC(C)C)[C@@H](O)CC(=O)N[C@@H](C)C(=O)N[C@@H](CC(C)C)[C@@H](O)CC(=O)O)C(C)C)C(C)C`, the inhibition entry in test [2] is “Active”.
Consider `C[C@@H](NC(=O)[C@H](Cc1ccccc1)NC(=O)[C@H](Cc1ccccc1)NC(=O)OC(C)(C)C)C(=O)OCc1ccccc1`, for which the inhibition entry in test [1] is “inactive”.
Consider `O=C(CNC(=O)[C@@H]1CCCN1C(=O)[C@@H]1C[C@@H](O)CN1C(=O)OCc1ccccc1)Oc1ccc([N+](=O)[O-])cc1` (Cbz-[Hyp]-Pro-Gly-ONp), for which the inhibition entry in test [1] is “inactive”.
Take `COC(=O)[C@H](Cc1ccc(O)cc1)NC(=O)[C@H](CC(C)C)NC(=O)[C@H](CO)NC(=O)OCc1ccccc1` (Cbz-Ser-Leu-Tyr-OMe): the inhibition result in test [1] is “Active”. Besides, the IC50 in test [3] stood at 162 µM.
For `COC(=O)[C@H](CC(C)C)NC(=O)[C@H](Cc1ccccc1)NC(=O)[C@H](CO)NC(=O)OCc1ccccc1` (Cbz-Ser-Phe-Leu-OMe), the inhibition entry in test [1] is “Active”. In addition, in test [3], the IC50 turned out to be 62 µM.
